Measurements from patent US20260325533A1, “CDK INHIBITOR COMPOUNDS” (ALEKSIA THERAPEUTICS, INC., priority 2023, published 2026).
Like-named read-outs stand apart in the source and are kept apart here. Blank lines part the entries; values can stand above or below the compound they belong to.

How the values were obtained:
Type in all cases: biochemical
CDK4/CCND3 = CDK4/CCND3 (Homo sapiens, UniProt P11802); assay: CDK4 homogeneous time-resolved fluorescence (HTRF) kinase assay
How it was run: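 IC50s derive from Lance 665 nm or 665/615 nm signals in 11-point, half-log dose series (top 10 μM, 1% DMSO). The enzyme, 1.5 nM CDK4/CCND3, phosphorylates 50 nM ULight-4E-BP1 peptide with 1 mM ATP over 60 min at 23 °C.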

CDK6/CCND1 = CDK6/CCND1 (Homo sapiens, UniProt Q00534); assay: CDK6 homogeneous time-resolved fluorescence (HTRF) kinase assay
CDK6/CCND1, sequence (Q00534 whole entry): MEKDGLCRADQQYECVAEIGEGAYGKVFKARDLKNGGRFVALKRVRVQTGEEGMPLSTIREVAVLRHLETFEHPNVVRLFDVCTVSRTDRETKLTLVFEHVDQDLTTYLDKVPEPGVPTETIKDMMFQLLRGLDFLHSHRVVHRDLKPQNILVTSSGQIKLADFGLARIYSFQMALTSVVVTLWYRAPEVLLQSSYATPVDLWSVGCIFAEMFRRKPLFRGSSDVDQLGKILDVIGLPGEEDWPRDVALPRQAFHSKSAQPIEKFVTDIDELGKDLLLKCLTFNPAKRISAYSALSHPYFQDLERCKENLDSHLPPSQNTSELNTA
CDK6/CCND1, sequence (P24385 whole entry partner): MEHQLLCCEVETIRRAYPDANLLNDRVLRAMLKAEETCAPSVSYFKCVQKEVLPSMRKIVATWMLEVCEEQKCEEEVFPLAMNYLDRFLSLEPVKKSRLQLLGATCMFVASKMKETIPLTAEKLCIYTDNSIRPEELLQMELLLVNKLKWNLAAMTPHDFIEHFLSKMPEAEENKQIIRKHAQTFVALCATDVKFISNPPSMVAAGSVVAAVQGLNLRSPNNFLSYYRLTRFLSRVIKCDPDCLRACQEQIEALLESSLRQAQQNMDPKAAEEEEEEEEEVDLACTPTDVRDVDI
How it was run: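 Assay conditions: HEPES buffer containing 10 mM MgCl2, 1 mM EGTA, 2 mM DTT, 0.01% Tween 20; 1 nM CDK6/CCND1, 50 nM peptide substrate, 1 mM ATP. Detection after 60 min reaction used 2 nM europium antibody with 340 nm excitation. Potency fitted from half-log series, 11 points.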

CDK2/CCNE1 = CDK2/CCNE1 (Homo sapiens, UniProt P24941); assay: CDK2 homogeneous time-resolved fluorescence (HTRF) kinase assay
How it was run: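 An HTRF format measures CDK2/CCNE1 (3 nM) phosphorylating a 4E-BP1 Thr37/46 peptide at high (1 mM) ATP. Reactions run one hour at 23 °C, then EDTA-quenched and probed with Eu-labelled phospho-specific antibody.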

CDK1/CCNB1 = CDK1/CCNB1 (Homo sapiens, UniProt P06493); assay: CDK1 homogeneous time-resolved fluorescence (HTRF) kinase assay
CDK1/CCNB1, sequence (P06493 whole entry): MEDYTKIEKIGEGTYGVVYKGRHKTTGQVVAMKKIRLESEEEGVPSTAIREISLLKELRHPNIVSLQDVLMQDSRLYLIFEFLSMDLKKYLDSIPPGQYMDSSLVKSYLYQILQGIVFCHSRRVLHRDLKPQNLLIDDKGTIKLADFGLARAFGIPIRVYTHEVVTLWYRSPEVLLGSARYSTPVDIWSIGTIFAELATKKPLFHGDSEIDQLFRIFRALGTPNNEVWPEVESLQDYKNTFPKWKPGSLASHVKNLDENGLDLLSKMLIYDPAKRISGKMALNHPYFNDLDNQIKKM
CDK1/CCNB1, sequence (P14635 whole entry partner): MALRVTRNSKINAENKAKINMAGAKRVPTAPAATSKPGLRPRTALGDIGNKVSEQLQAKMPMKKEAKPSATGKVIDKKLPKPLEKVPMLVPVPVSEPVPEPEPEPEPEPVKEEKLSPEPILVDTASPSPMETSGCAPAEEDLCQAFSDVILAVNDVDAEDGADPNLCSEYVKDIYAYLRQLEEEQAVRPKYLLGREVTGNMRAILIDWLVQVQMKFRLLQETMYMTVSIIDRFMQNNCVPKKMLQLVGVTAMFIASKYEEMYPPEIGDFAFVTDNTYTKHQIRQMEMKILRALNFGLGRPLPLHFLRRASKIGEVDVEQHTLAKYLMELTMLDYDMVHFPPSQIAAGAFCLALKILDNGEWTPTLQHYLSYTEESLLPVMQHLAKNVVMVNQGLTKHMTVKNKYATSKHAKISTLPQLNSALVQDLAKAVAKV
How it was run: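 Kinase activity is measured as Lance signal (665 nm, or 665/615 nm ratio) from europium-labelled anti-phospho-Thr37/46 antibody binding ULight-4E-BP1 peptide. Reactions contain 0.5 nM enzyme, 1 mM ATP, 1% DMSO and run 60 min at 23 °C before EDTA quench.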

[1] = CDK4/CCND, x = IC50 25-250 nM, read-out: CDK4/CCND IC50 (25-250 nM)
[2] = CDK6/CCND, x = IC50 >250 nM, read-out: CDK6/CCND IC50 (>250 nM column)
[3] = CDK2/CCNE, x = IC50 <25 nM, read-out: CDK2/CCNE IC50 (<25 nM)
[4] = CDK1/CCNB, x = IC50 25-250 nM, read-out: CDK1/CCNB IC50 (25-250 nM)
[5] = >250 nM, CDK4/CCND, read-out: CDK4/CCND IC50, >250 nM
[6] = >250 nM, CDK6/CCND, 1 mM ATP, read-out: CDK6/CCND IC50, >250 nM
[7] = >250 nM, CDK2/CCNE, read-out: CDK2/CCNE IC50, >250 nM
[8] = >250 nM, CDK1/CCNB, read-out: CDK1/CCNB IC50 >250 nM
[9] = 25-250 nM, CDK2/CCNE, read-out: CDK2/CCNE IC50, 25-250 nM
[10] = CDK4/CCND, x = IC50 >250 nM, read-out: CDK4/CCND IC50 (>250 nM column)
[11] = CDK1/CCNB, x = IC50 >250 nM, read-out: CDK1/CCNB IC50 (>250 nM column)
[12] = CDK4/CCND, >250 nM marked x, read-out: CDK4/CCND IC50 >250 nM
[13] = CDK6/CCND, >250 nM marked x, read-out: CDK6/CCND IC50 >250 nM
[14] = CDK2/CCNE, <25 nM, read-out: CDK2/CCNE IC50 <25 nM
[15] = CDK1/CCNB, >250 nM marked x, read-out: CDK1/CCNB IC50 >250 nM
[16] = CDK2/CCNE, 25-250 nM marked x, read-out: CDK2/CCNE IC50 25-250 nM

CDK4/CCND3, sequence (P11802 whole entry): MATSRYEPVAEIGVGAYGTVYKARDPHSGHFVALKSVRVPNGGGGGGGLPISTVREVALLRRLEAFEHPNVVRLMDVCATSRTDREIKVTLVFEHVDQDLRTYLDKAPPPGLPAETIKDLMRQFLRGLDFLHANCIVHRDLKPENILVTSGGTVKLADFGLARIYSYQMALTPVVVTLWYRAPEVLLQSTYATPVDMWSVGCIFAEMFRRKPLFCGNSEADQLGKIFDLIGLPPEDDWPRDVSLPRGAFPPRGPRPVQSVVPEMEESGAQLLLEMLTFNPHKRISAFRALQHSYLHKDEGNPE
CDK4/CCND3, sequence (P30281 whole entry partner): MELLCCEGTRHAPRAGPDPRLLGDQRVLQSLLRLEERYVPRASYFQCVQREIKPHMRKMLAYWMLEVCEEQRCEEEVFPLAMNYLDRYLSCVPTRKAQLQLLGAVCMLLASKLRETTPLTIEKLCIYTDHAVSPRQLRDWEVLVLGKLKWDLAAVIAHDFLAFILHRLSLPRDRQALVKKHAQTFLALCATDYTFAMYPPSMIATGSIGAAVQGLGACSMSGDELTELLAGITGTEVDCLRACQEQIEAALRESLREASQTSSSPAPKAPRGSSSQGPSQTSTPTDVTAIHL

IC50 (CDK4/CCND3; [1]): 0.025 to 0.25 µM
IC50 (CDK6/CCND1; [2]): > 0.25 µM
IC50 (CDK2/CCNE1; [3]): < 0.025 µM
IC50 (CDK1/CCNB1; [4]): 0.025 to 0.25 µM
Structure (SMILES): N=S(=O)(c1ccc(Nc2cc3c(C#Cc4ccc5c(c4)NC(=O)C54CCC4)nccc3cn2)cc1)C1CC1 (single isomer, unassigned) [Ex 344, 6'-((7-((4-(cyclopropanesulfonimidoyl)phenyl)amino)-2,6-naphthyridin-1-yl)ethynyl)spiro[cyclobutane-1,3'-indolin]-2'-one]

IC50 (CDK4/CCND3; [5]): > 0.25 µM
IC50 (CDK6/CCND1; [6]): > 0.25 µM
IC50 (CDK2/CCNE1; [7]): > 0.25 µM
IC50 (CDK1/CCNB1; [8]): > 0.25 µM
Structure (SMILES): CS(=O)(=O)c1ccc(Nc2cc3c(C#Cc4cc(F)c(F)c(F)c4)nccc3cn2)cc1 [Ex 875, N-(4-(methylsulfonyl)phenyl)-5-((3,4,5-trifluorophenyl)ethynyl)-2,6-naphthyridin-3-amine]

IC50 (CDK4/CCND3; [5]): > 0.25 µM
IC50 (CDK6/CCND1; [6]): > 0.25 µM
IC50 (CDK2/CCNE1; [9]): 0.025 to 0.25 µM
IC50 (CDK1/CCNB1; [8]): > 0.25 µM
Structure (SMILES): Cc1c(-c2nccc3cnc(Nc4ccc(S(C)(=O)=O)cc4Br)cc23)ccc2c1cnn2CC(C)(C)O [Ex 750, 1-(5-(7-((2-bromo-4-(methylsulfonyl)phenyl)amino)-2,6-naphthyridin-1-yl)-4-methyl-1H-indazol-1-yl)-2-methylpropan-2-ol]

IC50 (CDK4/CCND3; [5]): > 0.25 µM
IC50 (CDK6/CCND1; [6]): > 0.25 µM
IC50 (CDK2/CCNE1; [7]): > 0.25 µM
IC50 (CDK1/CCNB1; [8]): > 0.25 µM
Structure (SMILES): CCOC(=O)c1cn2cc(C#Cc3nccc4cnc(Nc5ccc(S(C)(=O)=O)cc5)cc34)ccc2n1 [Ex 851, ethyl6-((7-((4-(methylsulfonyl)phenyl)amino)-2,6-naphthyridin-1-yl)ethynyl)imidazo[1,2-a]pyridine-2-carboxylate]

IC50 (CDK4/CCND3; [12]): > 0.25 µM
IC50 (CDK6/CCND1; [13]): > 0.25 µM
IC50 (CDK2/CCNE1; [14]): < 0.025 µM
IC50 (CDK1/CCNB1; [15]): > 0.25 µM
Structure (SMILES): CC#Cc1nccc2cnc(Nc3ccc(S(C)(=O)=O)cc3)cc12 [Example 7, N-(4-(methylsulfonyl)phenyl)-5-(prop-1-yn-1-yl)-2,6-naphthyridin-3-amine]

IC50 (CDK4/CCND3; [5]): > 0.25 µM
IC50 (CDK6/CCND1; [6]): > 0.25 µM
IC50 (CDK2/CCNE1; [9]): 0.025 to 0.25 µM
IC50 (CDK1/CCNB1; [8]): > 0.25 µM
Structure (SMILES): Cc1c(-c2nccc3cnc(Nc4ccc(S(=O)(=O)Nc5ccccc5)cc4)cc23)ccc2c1cnn2CC(O)(C(F)(F)F)C(F)(F)F [Ex 728, 4-((5-(4-methyl-1-(3,3,3-trifluoro-2-hydroxy-2-(trifluoromethyl)propyl)-1H-indazol-5-yl)-2,6-naphthyridin-3-yl)amino)-N-phenylbenzenesulfonamide]

IC50 (CDK4/CCND3; [5]): > 0.25 µM
IC50 (CDK6/CCND1; [6]): > 0.25 µM
IC50 (CDK2/CCNE1; [9]): 0.025 to 0.25 µM
IC50 (CDK1/CCNB1; [8]): > 0.25 µM
Structure (SMILES): Cc1c(-c2nccc3cnc(Nc4ccc(S(=O)(=O)Nc5cccc(C(C)(C)O)c5)cc4)cc23)ccc2c1cnn2CC(O)(C(F)(F)F)C(F)(F)F [Ex 712, N-(3-(2-hydroxypropan-2-yl)phenyl)-4-((5-(4-methyl-1-(3,3,3-trifluoro-2-hydroxy-2-(trifluoromethyl)propyl)-1H-indazol-5-yl)-2,6-naphthyridin-3-yl)amino)benzenesulfonamide]

More lines, now with the values behind:

Structure (SMILES): CS(=O)(=O)c1ccc(Nc2ncc3ccnc(N4CCC(C#N)CC4)c3n2)cc1 [Example 958, 1-(2-((4-(methylsulfonyl)phenyl)amino)pyrido [3,4-d]pyrimidin-8-yl)piperidine-4-carbonitrile]
IC50 (CDK4/CCND3; 1.5 nM CDK4/CCND3, 1 mM ATP, read-out: CDK4/CCND IC50 25-250 nM): 0.025 to 0.25 µM
IC50 (CDK6/CCND1; 1 nM CDK6/CCND1, 1 mM ATP, read-out: CDK6/CCND IC50 <25 nM): < 0.025 µM
IC50 (CDK2/CCNE1; 3 nM CDK2/CCNE1, 1 mM ATP, read-out: CDK2/CCNE IC50 <25 nM): < 0.025 µM
IC50 (CDK1/CCNB1; 0.5 nM CDK1/CCNB1, 1 mM ATP, read-out: CDK1/CCNB IC50 >250 nM): > 0.25 µM

Structure (SMILES): Cc1c(-c2ncc(F)c3cnc(Nc4ccc(S(C)(=O)=O)cc4)cc23)ccc2c1cnn2CC(C)(C)O [Example 788, 1-(5-(4-fluoro-7-((4-(methylsulfonyl)phenyl)amino)-2,6-naphthyridin-1-yl)-4-methyl-1H-indazol-1-yl)-2-methylpropan-2-ol]
IC50 (CDK4/CCND3; [5]): > 0.25 µM
IC50 (CDK6/CCND1; [6]): > 0.25 µM
IC50 (CDK2/CCNE1; [9]): 0.025 to 0.25 µM
IC50 (CDK1/CCNB1; [8]): > 0.25 µM

Structure (SMILES): CC(=O)Nc1ccc(C#Cc2nccc3cnc(Nc4ccc(S(C)(=O)=O)cc4)cc23)cc1 [Ex 631, N-(4-((7-((4-(methylsulfonyl)phenyl)amino)-2,6-naphthyridin-1-yl)ethynyl)phenyl)acetamide]
IC50 (CDK4/CCND3; [10]): > 0.25 µM
IC50 (CDK6/CCND1; [2]): > 0.25 µM
IC50 (CDK2/CCNE1; [3]): < 0.025 µM
IC50 (CDK1/CCNB1; [11]): > 0.25 µM

Structure (SMILES): CC1(C)C(=O)Nc2cc(C#Cc3nccc4cnc(Nc5ccc(S(C)(=O)=O)c(Cl)c5)cc34)ccc21 [Ex 407, 6-((7-((3-chloro-4-(methylsulfonyl)phenyl)amino)-2,6-naphthyridin-1-yl)ethynyl)-3,3-dimethylindolin-2-one]
IC50 (CDK4/CCND3; [10]): > 0.25 µM
IC50 (CDK6/CCND1; [2]): > 0.25 µM
IC50 (CDK2/CCNE1; CDK2/CCNE, x = IC50 25-250 nM, read-out: CDK2/CCNE IC50 (25-250 nM)): 0.025 to 0.25 µM
IC50 (CDK1/CCNB1; [11]): > 0.25 µM

Structure (SMILES): CC(C)NS(=O)(=O)c1ccc(Nc2cc3c(C#Cc4cccnc4N)nccc3cn2)cc1 [Example 421, 4-((5-((2-aminopyridin-3-yl)ethynyl)-2,6-naphthyridin-3-yl)amino)-N-isopropylbenzenesulfonamide]
IC50 (CDK4/CCND3; [10]): > 0.25 µM
IC50 (CDK6/CCND1; [2]): > 0.25 µM
IC50 (CDK2/CCNE1; [3]): < 0.025 µM
IC50 (CDK1/CCNB1; [11]): > 0.25 µM

Structure (SMILES): C=CS(=O)(=O)c1ccc(Nc2cc3c(-c4cccc(C#N)c4)nccc3cn2)cc1 [Ex 136, 3-(7-((4-(vinylsulfonyl)phenyl)amino)-2,6-naphthyridin-1-yl)benzonitrile]
IC50 (CDK4/CCND3; [12]): > 0.25 µM
IC50 (CDK6/CCND1; [13]): > 0.25 µM
IC50 (CDK2/CCNE1; [16]): 0.025 to 0.25 µM
IC50 (CDK1/CCNB1; [15]): > 0.25 µM

Structure (SMILES): CS(=O)(=O)N1CCC(Nc2cc3c(-c4ccc5ocnc5c4)nccc3cn2)CC1 [Ex 70, 5-(benzo[d]oxazol-5-yl)-N-(1-(methylsulfonyl)piperidin-4-yl)-2,6-naphthyridin-3-amine]
IC50 (CDK4/CCND3; CDK4/CCND, 25-250 nM marked x, read-out: CDK4/CCND IC50 25-250 nM): 0.025 to 0.25 µM
IC50 (CDK6/CCND1; CDK6/CCND, <25 nM, read-out: CDK6/CCND IC50 <25 nM): < 0.025 µM
IC50 (CDK2/CCNE1; [14]): < 0.025 µM
IC50 (CDK1/CCNB1; [15]): > 0.25 µM

Structure (SMILES): COC(=O)c1nc(C#Cc2nccc3cnc(Nc4ccc(S(C)(=O)=O)cc4)cc23)cnc1N [Ex 588, methyl 3-amino-6-((7-((4-(methylsulfonyl)phenyl)amino)-2,6-naphthyridin-1-yl)ethynyl)pyrazine-2-carboxylate]
IC50 (CDK4/CCND3; [10]): > 0.25 µM
IC50 (CDK6/CCND1; [2]): > 0.25 µM
IC50 (CDK2/CCNE1; CDK2/CCNE, x = IC50 >250 nM, read-out: CDK2/CCNE IC50 (>250 nM column)): > 0.25 µM
IC50 (CDK1/CCNB1; [11]): > 0.25 µM

Structure (SMILES): CC1(C)C(=O)Nc2cc(C#Cc3nccc4cnc(Nc5ccc(S(C)(=O)=O)cc5)cc34)ccc21 [Ex 486, 3,3-dimethyl-6-((7-((4-(methylsulfonyl)phenyl)amino)-2,6-naphthyridin-1-yl)ethynyl)indolin-2-one]
IC50 (CDK4/CCND3; [1]): 0.025 to 0.25 µM
IC50 (CDK6/CCND1; [2]): > 0.25 µM
IC50 (CDK2/CCNE1; [3]): < 0.025 µM
IC50 (CDK1/CCNB1; [4]): 0.025 to 0.25 µM

Structure (SMILES): CCC1(CC)C(=O)Nc2cc(C#Cc3nccc4cnc(Nc5ccc(S(=N)(=O)CC(F)(F)F)cc5C)cc34)ccc21 (single isomer, unassigned) [Ex 284, 3,3-diethyl-6-((7-((2-methyl-4-(2,2,2-trifluoroethylsulfonimidoyl)phenyl)amino)-2,6-naphthyridin-1-yl)ethynyl)indolin-2-one]
IC50 (CDK4/CCND3; [12]): > 0.25 µM
IC50 (CDK6/CCND1; [13]): > 0.25 µM
IC50 (CDK2/CCNE1; [16]): 0.025 to 0.25 µM
IC50 (CDK1/CCNB1; [15]): > 0.25 µM

Structure (SMILES): CS(=O)(=O)c1ccc(Nc2cc3c(C#Cc4n[nH]c5cnccc45)nccc3cn2)cc1 [Example 496, 5-((1H-pyrazolo[3,4-c]pyridin-3-yl)ethynyl)-N-(4-(methylsulfonyl)phenyl)-2,6-naphthyridin-3-amine]
IC50 (CDK4/CCND3; [10]): > 0.25 µM
IC50 (CDK6/CCND1; [2]): > 0.25 µM
IC50 (CDK2/CCNE1; [3]): < 0.025 µM
IC50 (CDK1/CCNB1; [11]): > 0.25 µM
